Laboratory results from ChEMBL document CHEMBL5360618, “PepScaf: Harnessing Machine Learning with In Vitro Selection toward De Novo Macrocyclic Peptides against IL-17C/IL-17RE Interaction” (J Med Chem, 2023).
pIC50: −log10 of the molar value. Positions of bridges follow the written chain, without caps; N, C: chain ends. Residues, ends and D or L forms follow the SMILES beside them.

target: T1, IL17-RE-IL-17C (Homo sapiens, UniProt Q8NFR9+Q9P0M4); assay: Inhibition of IL-17C/IL-17RE interaction (unknown origin) incubated for 1.5 hrs by ELISA method; format: protein-complex assay
T1 sequence (Q9P0M4 whole entry): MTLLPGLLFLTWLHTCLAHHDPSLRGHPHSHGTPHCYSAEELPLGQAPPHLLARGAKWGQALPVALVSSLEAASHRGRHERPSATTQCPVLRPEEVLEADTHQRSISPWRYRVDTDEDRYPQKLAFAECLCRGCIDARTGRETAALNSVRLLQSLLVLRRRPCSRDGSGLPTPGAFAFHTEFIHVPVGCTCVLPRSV
T1 sequence (Q8NFR9 whole entry): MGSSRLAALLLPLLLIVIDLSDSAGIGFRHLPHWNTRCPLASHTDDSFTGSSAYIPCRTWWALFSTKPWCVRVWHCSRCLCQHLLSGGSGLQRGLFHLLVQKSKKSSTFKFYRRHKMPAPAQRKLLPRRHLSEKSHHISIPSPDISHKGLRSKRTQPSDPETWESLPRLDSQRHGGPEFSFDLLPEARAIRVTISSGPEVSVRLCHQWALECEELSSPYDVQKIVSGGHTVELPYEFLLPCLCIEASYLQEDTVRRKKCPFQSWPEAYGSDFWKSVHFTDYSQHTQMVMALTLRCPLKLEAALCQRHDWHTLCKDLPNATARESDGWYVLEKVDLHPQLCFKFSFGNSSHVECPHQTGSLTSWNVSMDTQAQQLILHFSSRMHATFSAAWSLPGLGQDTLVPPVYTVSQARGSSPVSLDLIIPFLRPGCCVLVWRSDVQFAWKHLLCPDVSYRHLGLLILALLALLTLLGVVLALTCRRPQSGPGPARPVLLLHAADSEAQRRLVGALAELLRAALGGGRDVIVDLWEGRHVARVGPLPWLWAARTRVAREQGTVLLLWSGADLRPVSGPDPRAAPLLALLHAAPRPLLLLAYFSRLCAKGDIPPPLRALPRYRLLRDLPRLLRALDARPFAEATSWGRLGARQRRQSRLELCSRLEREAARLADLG

| SMILES | pIC50 |
| --- | --- |
| CC[C@H](C)[C@@H]1NC(=O)[C@H](CCCNC(=N)N)NC(=O)[C@H](Cc2ccc(O)cc2)NC(=O)[C@H](C)NC(=O)[C@H](Cc2c[nH]cn2)NC(=O)[C@H](Cc2c[nH]cn2)NC(=O)[C@H](Cc2ccc(O)cc2)NC(=O)CSC[C@@H](C(=O)NCC(N)=O)NC(=O)CNC(=O)[C@H](CC(C)C)NC(=O)[C@H](CCC(=O)O)NC(=O)CNC(=O)[C@H](Cc2ccc(O)cc2)NC(=O)[C@H](CC(C)C)NC1=O ({CH2CO}-YHHAYRILYGELGCG-NH2; thioether N-14) | < 4.52 |
| CC[C@H](C)[C@@H]1NC(=O)[C@H](CCCNC(=N)N)NC(=O)[C@H](Cc2ccc(O)cc2)NC(=O)[C@H](Cc2ccccc2)NC(=O)[C@H](Cc2c[nH]cn2)NC(=O)[C@H](Cc2c[nH]cn2)NC(=O)[C@H](Cc2ccc(O)cc2)NC(=O)CSC[C@@H](C(=O)NCC(N)=O)NC(=O)CNC(=O)[C@H](CC(C)C)NC(=O)[C@H](CCC(=O)O)NC(=O)CNC(=O)[C@H](Cc2ccc(O)cc2)NC(=O)[C@H](CC(C)C)NC1=O ({CH2CO}-YHHFYRILYGELGCG-NH2; thioether N-14) | 6.77 |
| CC[C@H](C)[C@@H]1NC(=O)[C@H](CCCNC(=N)N)NC(=O)[C@H](Cc2ccc(O)cc2)NC(=O)[C@H](Cc2c[nH]cn2)NC(=O)[C@H](Cc2c[nH]cn2)NC(=O)[C@H](Cc2c[nH]cn2)NC(=O)[C@H](Cc2ccc(O)cc2)NC(=O)CSC[C@@H](C(=O)NCC(N)=O)NC(=O)CNC(=O)[C@H](CC(C)C)NC(=O)[C@H](CCC(=O)O)NC(=O)CNC(=O)[C@H](Cc2ccc(O)cc2)NC(=O)[C@H](CC(C)C)NC1=O ({CH2CO}-YHHHYRILYGELGCG-NH2; thioether N-14) | 5.16 |
| CC[C@H](C)[C@@H]1NC(=O)[C@H](CCCNC(=N)N)NC(=O)[C@H](Cc2ccccc2)NC(=O)[C@H](Cc2ccc(O)cc2)NC(=O)[C@H](Cc2c[nH]cn2)NC(=O)[C@H](Cc2c[nH]cn2)NC(=O)[C@H](Cc2ccc(O)cc2)NC(=O)CSC[C@@H](C(=O)NCC(N)=O)NC(=O)CNC(=O)[C@H](CC(C)C)NC(=O)[C@H](CCC(=O)O)NC(=O)CNC(=O)[C@H](Cc2ccc(O)cc2)NC(=O)[C@H](CC(C)C)NC1=O ({CH2CO}-YHHYFRILYGELGCG-NH2; thioether N-14) | 5.40 |
| CC[C@H](C)[C@@H]1NC(=O)[C@H](CCCNC(=N)N)NC(=O)[C@H](Cc2c[nH]cn2)NC(=O)[C@H](Cc2ccc(O)cc2)NC(=O)[C@H](Cc2c[nH]cn2)NC(=O)[C@H](Cc2c[nH]cn2)NC(=O)[C@H](Cc2ccc(O)cc2)NC(=O)CSC[C@@H](C(=O)NCC(N)=O)NC(=O)CNC(=O)[C@H](CC(C)C)NC(=O)[C@H](CCC(=O)O)NC(=O)CNC(=O)[C@H](Cc2ccc(O)cc2)NC(=O)[C@H](CC(C)C)NC1=O ({CH2CO}-YHHYHRILYGELGCG-NH2; thioether N-14) | < 4.52 |
| CC(C)C[C@@H]1NC(=O)[C@H](CCC(=O)O)NC(=O)CNC(=O)[C@H](Cc2ccc(O)cc2)NC(=O)[C@H](CC(C)C)NC(=O)[C@H](Cc2ccccc2)NC(=O)[C@H](CCCNC(=N)N)NC(=O)[C@H](Cc2ccc(O)cc2)NC(=O)[C@H](Cc2ccc(O)cc2)NC(=O)[C@H](Cc2c[nH]cn2)NC(=O)[C@H](Cc2c[nH]cn2)NC(=O)[C@H](Cc2ccc(O)cc2)NC(=O)CSC[C@@H](C(=O)NCC(N)=O)NC(=O)CNC1=O ({CH2CO}-YHHYYRFLYGELGCG-NH2; thioether N-14) | 5.78 |
| CC[C@H](C)[C@@H]1NC(=O)[C@H](CCCNC(=N)N)NC(=O)[C@H](Cc2ccc(O)cc2)NC(=O)[C@H](Cc2ccc(O)cc2)NC(=O)[C@H](Cc2c[nH]cn2)NC(=O)[C@H](Cc2c[nH]cn2)NC(=O)[C@H](Cc2ccc(O)cc2)NC(=O)CSC[C@@H](C(=O)NCC(N)=O)NC(=O)CNC(=O)[C@H](CC(C)C)NC(=O)[C@H](CCC(=O)O)NC(=O)CNC(=O)[C@H](C)NC(=O)[C@H](CC(C)C)NC1=O ({CH2CO}-YHHYYRILAGELGCG-NH2; thioether N-14) | < 4.52 |
| CC[C@H](C)[C@@H]1NC(=O)[C@H](CCCNC(=N)N)NC(=O)[C@H](Cc2ccc(O)cc2)NC(=O)[C@H](Cc2ccc(O)cc2)NC(=O)[C@H](Cc2c[nH]cn2)NC(=O)[C@H](Cc2c[nH]cn2)NC(=O)[C@H](Cc2ccc(O)cc2)NC(=O)CSC[C@@H](C(=O)NCC(N)=O)NC(=O)CNC(=O)[C@H](CC(C)C)NC(=O)[C@H](CCC(=O)O)NC(=O)CNC(=O)[C@H](Cc2ccccc2)NC(=O)[C@H](CC(C)C)NC1=O ({CH2CO}-YHHYYRILFGELGCG-NH2; thioether N-14) | 5.91 |
| CC[C@H](C)[C@@H]1NC(=O)[C@H](CCCNC(=N)N)NC(=O)[C@H](Cc2ccc(O)cc2)NC(=O)[C@H](Cc2ccc(O)cc2)NC(=O)[C@H](Cc2c[nH]cn2)NC(=O)[C@H](Cc2c[nH]cn2)NC(=O)[C@H](Cc2ccc(O)cc2)NC(=O)CSC[C@@H](C(=O)NCC(N)=O)NC(=O)CNC(=O)[C@H](C)NC(=O)[C@H](CCC(=O)O)NC(=O)CNC(=O)[C@H](Cc2ccc(O)cc2)NC(=O)[C@H](CC(C)C)NC1=O ({CH2CO}-YHHYYRILYGEAGCG-NH2; thioether N-14) | < 4.52 |

Second part, the compound after the results:

| pIC50 | SMILES |
| --- | --- |
| < 4.52 | CC[C@H](C)[C@@H]1NC(=O)[C@H](CCCNC(=N)N)NC(=O)[C@H](C)NC(=O)[C@H](Cc2ccc(O)cc2)NC(=O)[C@H](Cc2c[nH]cn2)NC(=O)[C@H](Cc2c[nH]cn2)NC(=O)[C@H](Cc2ccc(O)cc2)NC(=O)CSC[C@@H](C(=O)NCC(N)=O)NC(=O)CNC(=O)[C@H](CC(C)C)NC(=O)[C@H](CCC(=O)O)NC(=O)CNC(=O)[C@H](Cc2ccc(O)cc2)NC(=O)[C@H](CC(C)C)NC1=O ({CH2CO}-YHHYARILYGELGCG-NH2; thioether N-14) |
| 6.40 | CC[C@H](C)[C@@H]1NC(=O)[C@H](C)NC(=O)[C@H](Cc2ccc(O)cc2)NC(=O)[C@H](Cc2ccc(O)cc2)NC(=O)[C@H](Cc2c[nH]cn2)NC(=O)[C@H](Cc2c[nH]cn2)NC(=O)[C@H](Cc2ccc(O)cc2)NC(=O)CSC[C@@H](C(=O)NCC(N)=O)NC(=O)CNC(=O)[C@H](CC(C)C)NC(=O)[C@H](CCC(=O)O)NC(=O)CNC(=O)[C@H](Cc2ccc(O)cc2)NC(=O)[C@H](CC(C)C)NC1=O ({CH2CO}-YHHYYAILYGELGCG-NH2; thioether N-14) |
| < 4.52 | CC[C@H](C)[C@@H]1NC(=O)CNC(=O)[C@H](Cc2ccc(O)cc2)NC(=O)[C@H](Cc2ccc(O)cc2)NC(=O)[C@H](Cc2c[nH]cn2)NC(=O)[C@H](Cc2c[nH]cn2)NC(=O)[C@H](Cc2ccc(O)cc2)NC(=O)CSC[C@@H](C(=O)NCC(N)=O)NC(=O)CNC(=O)[C@H](CC(C)C)NC(=O)[C@H](CCC(=O)O)NC(=O)CNC(=O)[C@H](Cc2ccc(O)cc2)NC(=O)[C@H](CC(C)C)NC1=O ({CH2CO}-YHHYYGILYGELGCG-NH2; thioether N-14) |
| < 4.52 | CC[C@H](C)[C@@H]1NC(=O)[C@H](CCCNC(=N)N)NC(=O)[C@H](Cc2ccc(O)cc2)NC(=O)[C@H](Cc2ccc(O)cc2)NC(=O)[C@H](Cc2c[nH]cn2)NC(=O)[C@H](Cc2c[nH]cn2)NC(=O)[C@H](Cc2ccc(O)cc2)NC(=O)CSC[C@@H](C(=O)NCC(N)=O)NC(=O)CNC(=O)[C@H](CC(C)C)NC(=O)[C@H](CCC(=O)O)NC(=O)CNC(=O)[C@H](Cc2ccc(O)cc2)NC(=O)[C@H](C)NC1=O ({CH2CO}-YHHYYRIAYGELGCG-NH2; thioether N-14) |
| < 4.52 | CC[C@H](C)[C@@H]1NC(=O)[C@H](CCCNC(=N)N)NC(=O)[C@H](Cc2ccc(O)cc2)NC(=O)[C@H](Cc2ccc(O)cc2)NC(=O)[C@H](Cc2c[nH]cn2)NC(=O)[C@H](Cc2c[nH]cn2)NC(=O)[C@H](Cc2ccc(O)cc2)NC(=O)CSC[C@@H](C(=O)NCC(N)=O)NC(=O)CNC(=O)[C@H](CC(C)C)NC(=O)[C@H](CCC(=O)O)NC(=O)CNC(=O)[C@H](Cc2c[nH]cn2)NC(=O)[C@H](CC(C)C)NC1=O ({CH2CO}-YHHYYRILHGELGCG-NH2; thioether N-14) |
| 5.87 | CC[C@H](C)[C@@H]1NC(=O)[C@H](CCCNC(=N)N)NC(=O)[C@H](Cc2ccc(O)cc2)NC(=O)[C@H](Cc2ccc(O)cc2)NC(=O)[C@H](Cc2c[nH]cn2)NC(=O)[C@H](Cc2c[nH]cn2)NC(=O)[C@H](Cc2ccc(O)cc2)NC(=O)CSC[C@@H](C(=O)NCC(N)=O)NC(=O)CNC(=O)[C@H](CC(C)C)NC(=O)[C@H](CCC(=O)O)NC(=O)[C@H](C)NC(=O)[C@H](Cc2ccc(O)cc2)NC(=O)[C@H](CC(C)C)NC1=O ({CH2CO}-YHHYYRILYAELGCG-NH2; thioether N-14) |
| 6.74 | CC[C@H](C)[C@@H]1NC(=O)[C@H](CCCNC(=N)N)NC(=O)[C@H](Cc2ccc(O)cc2)NC(=O)[C@H](Cc2ccc(O)cc2)NC(=O)[C@H](Cc2c[nH]cn2)NC(=O)[C@H](Cc2c[nH]cn2)NC(=O)[C@H](Cc2ccc(O)cc2)NC(=O)CSC[C@@H](C(=O)NCC(N)=O)NC(=O)CNC(=O)[C@H](CC(C)C)NC(=O)[C@H](C)NC(=O)CNC(=O)[C@H](Cc2ccc(O)cc2)NC(=O)[C@H](CC(C)C)NC1=O ({CH2CO}-YHHYYRILYGALGCG-NH2; thioether N-14) |
